Results on 17 compounds are retold here after ChEMBL document CHEMBL1138939, “Privileged structure based ligands for melanocortin receptors--4,4-disubstituted piperidine derivatives” (Bioorg Med Chem Lett, 2006).

Structures are written as SMILES.

In general, Ki refers to the dissociation constant of the complex between target and ligand, obtained from inhibition or displacement. A low value points to tighter binding.

Chain of Melanocortin receptor 4 (P32245 whole entry): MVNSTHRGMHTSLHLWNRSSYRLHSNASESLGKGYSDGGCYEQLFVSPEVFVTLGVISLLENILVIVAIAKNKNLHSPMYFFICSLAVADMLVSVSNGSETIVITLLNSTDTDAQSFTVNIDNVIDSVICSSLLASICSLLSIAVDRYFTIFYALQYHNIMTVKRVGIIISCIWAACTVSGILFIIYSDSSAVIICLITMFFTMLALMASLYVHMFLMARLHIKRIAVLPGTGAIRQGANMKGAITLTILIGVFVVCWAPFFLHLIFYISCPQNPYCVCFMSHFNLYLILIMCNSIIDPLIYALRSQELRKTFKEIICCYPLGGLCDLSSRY

This assay addresses Melanocortin receptor 4 (Homo sapiens, UniProt P32245). The assay can be described thus: Displacement of [125I]NDP-alpha-MSH from human MC4 receptor transfected in HEK293 cells. The assay is classed as cell-based. For orientation: Displacement assays read how much labelled ligand stays bound in the presence of the test substance.
In the case of `CCCCCCC1(N2CCN(C(=O)[C@@H](Cc3ccc(Cl)cc3)NC(=O)CC3NCc4ccccc43)CC2)CCN(C)CC1` (some centres not stated), the affinity, expressed as Ki, was 69.6 nM.
`CN1CCC(CC2CCCCC2)(N2CCN(C(=O)[C@@H](Cc3ccc(Cl)cc3)NC(=O)CC3NCc4ccccc43)CC2)CC1` (some centres not stated): affinity was put at a Ki of 6.8 nM.
As for `CC(C)CC1(N2CCN(C(=O)[C@@H](Cc3ccc(Cl)cc3)NC(=O)CC3NCc4ccccc43)CC2)CCS(=O)(=O)CC1` (some centres not stated), the figure is 75.8 nM; as for `CCC1(N2CCN(C(=O)[C@@H](Cc3ccc(Cl)cc3)NC(=O)CC3NCc4ccccc43)CC2)CCN(C)CC1` (some centres not stated), 370 nM.
In turn, `CC(C)CC1(N2CCN(C(=O)[C@@H](Cc3ccc(Cl)cc3)NC(=O)CC3NCc4ccccc43)CC2)CCN(C)CC1` (some centres not stated) came in with a Ki of 12.7 nM.
Take `CC(C)CC1(N2CCN(C(=O)[C@@H](Cc3ccc(Cl)cc3)NC(=O)CC3NCc4ccccc43)CC2)CCN(C(C)C)CC1` (some centres not stated): the Ki was 12.9 nM.
The figure for `CN1CCC(Cc2ccccc2)(N2CCN(C(=O)[C@@H](Cc3ccc(Cl)cc3)NC(=O)CC3NCc4ccccc43)CC2)CC1` (some centres not stated) is 43.9 nM; for `CC(C)CC1(N2CCN(C(=O)[C@@H](Cc3ccc(Cl)cc3)NC(=O)CC3NCc4ccccc43)CC2)CCSCC1` (some centres not stated) it is 68.4 nM; for `CC(C)CC1(N2CCN(C(=O)[C@@H](Cc3ccc(Cl)cc3)NC(=O)CC3NCc4ccccc43)CC2)CCN(C(=O)C(C)C)CC1` (some centres not stated) it is 101 nM.
As for `CCN(CC)CC(CC1CCCCC1)N1CCN(C(=O)[C@@H](Cc2ccc(Cl)cc2)NC(=O)CC2NCc3ccccc32)CC1` (some centres not stated), the figure is 5 nM; as for `CC(=O)N1CCC(CC(C)C)(N2CCN(C(=O)[C@@H](Cc3ccc(Cl)cc3)NC(=O)CC3NCc4ccccc43)CC2)CC1` (some centres not stated), 37.5 nM; as for `CN1CCC(c2ccccc2)(N2CCN(C(=O)[C@@H](Cc3ccc(Cl)cc3)NC(=O)CC3NCc4ccccc43)CC2)CC1` (some centres not stated), 215 nM.
As for `CC(C)CC1(N2CCN(C(=O)[C@@H](Cc3ccc(Cl)cc3)NC(=O)CC3NCc4ccccc43)CC2)CCN(S(C)(=O)=O)CC1` (some centres not stated), the figure is 27.3 nM; as for `CC(C)C1(N2CCN(C(=O)[C@@H](Cc3ccc(Cl)cc3)NC(=O)CC3NCc4ccccc43)CC2)CCN(C)CC1` (some centres not stated), 41.8 nM; as for `CC(C)CC1(N2CCN(C(=O)[C@@H](Cc3ccc(Cl)cc3)NC(=O)CC3NCc4ccccc43)CC2)CCOCC1` (some centres not stated), 31.4 nM.
Consider `CCN1CCC(CC(C)C)(N2CCN(C(=O)[C@@H](Cc3ccc(Cl)cc3)NC(=O)CC3NCc4ccccc43)CC2)CC1` (some centres not stated), for which the Ki was 15.6 nM.
The figure for `CC(C)CC1(N2CCN(C(=O)[C@@H](Cc3ccc(Cl)cc3)NC(=O)CC3NCc4ccccc43)CC2)CCCCC1` (some centres not stated) is 46.9 nM.
